Measurements taken from patent US20250339489A1, “COMPOSITION FOR SUPPRESSING HAIR LOSS OR PROMOTING HAIR GROWTH CONTAINING PEPTIDE” (AMOREPACIFIC CORPORATION, priority 2024, published 2025).

These substances were tested on Human dermal papilla cells (HDPCs) (assay: Activation of hair dermal papilla cell proliferation (CCK8 assay, absorbance at 450 nm)). Conditions: serum-free DMEM, peptide at 0.1 μM, 1 μM and 10 μM, 72 hours.
Type: cell-based
Description: Human dermal papilla cells (HDPCs) were attached to a 96-well plate at 2,000 cells per well, and then cultured using DMEM medium (Sigma Aldrich) containing 10% FBS and 1% penicillin/streptomycin (P/S; Sigma Aldrich) for 24 hours, the medium was then exchanged with serum-free DMEM, and diluted samples were treated with a GPK, GPS, GPA, GQK, or PO peptide at a concentration of each of 0.1 μM, 1 μM, and 10 μM, for 72 hours, and then treated with a CCK8 reagent for 1 hour to measure the absorbance at 450 nm using a microplate reader (TECAN), and the results are shown in FIGS. 1 to 5 (FIG. 1: GPK, FIG. 2: GPS, FIG. 3: GPA, FIG. 4: GQK, and FIG. 5: PO). As a positive control (PC), a 5% fetal bovine serum (FBS) treated group was used.

Row | Substance | cell proliferation compared to the untreated control
1 | Pro-Hyp [PO] | significantly increased
2 | Gly-Pro-Lys [GPK] | significantly increased
3 | Gly-Pro-Ser [GPS] | significantly increased
4 | Gly-Gln-Lys [GQK] | significantly increased
5 | Gly-Pro-Ala [GPA] | significantly increased
